Molecular target: PIK3CA (human) (UniProt P42336)
Assay: Assessment of PIK3CA Kinase Activity

Chain of PIK3CA (human) (P42336 whole entry, looked up): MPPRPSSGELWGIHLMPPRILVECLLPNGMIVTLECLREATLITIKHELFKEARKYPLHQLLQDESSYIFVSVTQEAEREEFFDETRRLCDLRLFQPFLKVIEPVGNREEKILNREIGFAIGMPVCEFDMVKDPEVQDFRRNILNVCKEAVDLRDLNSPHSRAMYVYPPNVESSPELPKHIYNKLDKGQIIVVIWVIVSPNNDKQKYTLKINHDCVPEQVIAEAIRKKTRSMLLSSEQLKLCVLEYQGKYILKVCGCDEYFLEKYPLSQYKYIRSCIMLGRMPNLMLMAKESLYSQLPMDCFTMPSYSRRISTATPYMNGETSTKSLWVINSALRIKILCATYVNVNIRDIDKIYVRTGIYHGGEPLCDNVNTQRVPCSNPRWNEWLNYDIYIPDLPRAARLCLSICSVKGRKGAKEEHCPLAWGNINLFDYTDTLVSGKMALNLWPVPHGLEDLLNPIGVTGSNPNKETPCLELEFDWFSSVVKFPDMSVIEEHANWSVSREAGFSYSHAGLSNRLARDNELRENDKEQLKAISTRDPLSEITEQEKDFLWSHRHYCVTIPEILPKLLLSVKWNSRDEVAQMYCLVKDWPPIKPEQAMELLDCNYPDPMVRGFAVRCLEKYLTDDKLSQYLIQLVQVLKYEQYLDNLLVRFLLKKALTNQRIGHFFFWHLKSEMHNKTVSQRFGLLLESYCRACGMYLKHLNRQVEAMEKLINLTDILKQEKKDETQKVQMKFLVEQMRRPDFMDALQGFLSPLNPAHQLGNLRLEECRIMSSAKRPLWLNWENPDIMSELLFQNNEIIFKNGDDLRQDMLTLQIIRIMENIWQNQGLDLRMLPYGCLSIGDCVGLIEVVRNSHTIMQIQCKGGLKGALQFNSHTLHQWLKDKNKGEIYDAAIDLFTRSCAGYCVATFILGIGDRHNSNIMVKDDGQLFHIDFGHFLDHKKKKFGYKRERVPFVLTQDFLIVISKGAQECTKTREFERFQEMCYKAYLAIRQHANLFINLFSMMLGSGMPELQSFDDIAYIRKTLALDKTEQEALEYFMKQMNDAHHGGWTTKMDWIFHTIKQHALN

Row | IC50 | SMILES
1 | ≤ 100 nM | COCCc1c(C)nc(CN2CCCC2)nc1N1CCOc2c(C)cc(-c3cnc4sc(N)nc4c3)cc2C1
2 | ≤ 100 nM | Cc1cc(-c2cn(C)nc2C)cc2c1OCCN(c1nc(N)nc(C)c1C(C)C)C2
3 | ≤ 100 nM | Cc1cc(-c2cn[nH]c2)cc2c1OCCN(c1nc(N)nc(C)c1C(C)C)C2
4 | ≤ 100 nM | COCCc1cnc(C)nc1N1CCOc2c(C)cc(-c3cnc4sc(N)nc4c3)cc2C1
5 | ≤ 100 nM | Cc1nc2ccc(-c3cc(C)c4c(c3)CN(c3nc(N)nc(C)c3C(C)C)CCO4)cc2[nH]1
6 | ≤ 100 nM | C=Cc1c(C)ncnc1N1CCOc2c(C)cc(-c3cnc4sc(N)nc4c3)cc2C1
7 | ≤ 100 nM | Cc1cc(-c2cnc3sc(N)nc3c2)cc2c1OCCN(c1nc(N)nc3c1CC(C)(C)CC3)C2
8 | 100 to 500 nM | Cc1cc(-c2ccc(N)nc2)cc2c1OCCN(c1nc(N)nc(C)c1C(C)C)C2
9 | ≤ 100 nM | C=Cc1c(C)nc(N)nc1N1CCOc2c(C)cc(-c3nnc(N)s3)cc2C1
10 | ≤ 100 nM | Cc1cc(-c2cnc3sc(N)nc3c2)cc2c1OCCN(c1nc(CO)nc(C)c1C(C)C)C2
11 | ≤ 100 nM | CCNC(=O)c1nc(C)c(C(C)C)c(N2CCOc3c(C)cc(-c4cnc5sc(N)nc5c4)cc3C2)n1
12 | ≤ 100 nM | Cc1cc(-c2cnc3sc(N)nc3c2)cc2c1OCCN(c1nc(N)nc(C)c1C(C)C)C2
13 | ≤ 100 nM | CC(=O)NCc1nc(C)c(C(C)C)c(N2CCOc3c(C)cc(-c4cnc5sc(N)nc5c4)cc3C2)n1
14 | ≤ 100 nM | COCCc1c(C)nc(C)nc1N1CCOc2c(C)cc(-c3cnc4sc(N)nc4c3)cc2C1
15 | ≤ 100 nM | C=Cc1c(CC)nc(N)nc1N1CCOc2c(C)cc(-c3cnc4sc(N)nc4c3)cc2C1
16 | ≤ 100 nM | Cc1cc(-c2cnc3sc(N)nc3c2)cc2c1OCCN(c1nc(C3CNC3)nc(C)c1C(C)C)C2
17 | ≤ 100 nM | Cc1cc(-c2cnc3sc(N)nc3c2)cc2c1OCCN(c1nc(N)ncc1C(F)(F)F)C2
18 | ≤ 100 nM | COCCc1nc(C)c(C(C)C)c(N2CCOc3c(C)cc(-c4cnc(Cl)c(NS(C)(=O)=O)c4)cc3C2)n1
19 | ≤ 100 nM | Cc1cc(-c2cnc(Cl)c(NS(C)(=O)=O)c2)cc2c1OCCN(c1ncc(C#N)c(N)n1)C2
20 | ≤ 100 nM | Cc1cc(-c2nnc(N)s2)cc2c1OCCN(c1nc(CNCC(F)F)nc(C)c1C(C)C)C2
21 | ≤ 100 nM | Cc1cc(-c2cnc3sc(N)nc3c2)cc2c1OCCN(c1nc(CN)nc(C)c1C(C)C)C2
22 | 100 to 500 nM | Cc1cc(-c2cncnc2)cc2c1OCCN(c1nc(N)nc(C)c1C(C)C)C2
23 | ≤ 100 nM | Cc1cc(-c2cnc3sc(N)nc3c2)cc2c1OCCN(c1nc(C3CCCN3)nc(C)c1C(C)C)C2 (stereo unspecified)

Row | IC50 | SMILES
24 | ≤ 100 nM | CCc1c(Cl)nc(N)nc1N1CCOc2c(C)cc(-c3cnc4sc(N)nc4c3)cc2C1
25 | ≤ 100 nM | Cc1cc(-c2cnc(Cl)c(NS(C)(=O)=O)c2)cc2c1OCCN(c1nc(CNCC(F)F)nc(C)c1C(C)C)C2
26 | ≤ 100 nM | Cc1cc(-c2cnc3sc(N)nc3c2)cc2c1OCCN(c1nc(CC#N)nc(C)c1C(C)C)C2
27 | ≤ 100 nM | Cc1cc(-c2cnc3nc[nH]c3c2)cc2c1OCCN(c1nc(CNCC(F)F)nc(C)c1C(C)C)C2
28 | 100 to 500 nM | CC(=O)Nc1ncc(-c2cc(C)c3c(c2)CN(c2nc(N)nc(C)c2C(C)C)CCO3)s1
29 | ≤ 100 nM | CCN(Cc1nc(C)c(C(C)C)c(N2CCOc3c(C)cc(-c4nnc(N)s4)cc3C2)n1)CC(F)F
30 | ≤ 100 nM | Cc1cc(-c2cnc(Cl)c(NS(C)(=O)=O)c2)cc2c1OCCN(c1nc(N)ncc1C(F)(F)F)C2
31 | ≤ 100 nM | Cc1cc(-c2cnc(Cl)c(NS(C)(=O)=O)c2)cc2c1OCCN(c1nc(C(N)=O)nc(C)c1C(C)C)C2
32 | ≤ 100 nM | C=C(C)c1c(C)nc(N)nc1N1CCOc2c(C)cc(-c3cnc4sc(N)nc4c3)cc2C1
33 | ≤ 100 nM | Cc1cc(-c2cnc3sc(N)nc3c2)cc2c1OCCN(c1nc([C@@H]3C[C@@H](F)CN3)nc(C)c1C(C)C)C2
34 | ≤ 100 nM | Cc1cnccc1N1CCOc2c(C)cc(-c3cnc4sc(N)nc4c3)cc2C1
35 | ≤ 100 nM | COc1ncc(-c2cc(C)c3c(c2)CN(c2nc(N)nc(C)c2C(C)C)CCO3)cc1NS(C)(=O)=O
36 | 100 to 500 nM | CSc1nc(Cl)c(C(C)(C)O)c(N2CCOc3c(C)cc(-c4cnc5sc(N)nc5c4)cc3C2)n1
37 | 100 to 500 nM | Cc1cc(-c2cnc3sc(N)nc3c2)cc2c1OCCN(c1nc(CN(C)C)ncc1CC(F)(F)F)C2
38 | ≤ 100 nM | C=CCc1c(C)nc(N)nc1N1CCOc2c(C)cc(-c3cnc4sc(N)nc4c3)cc2C1
39 | ≤ 100 nM | Cc1cc(-c2cnc3sc(N)nc3c2)cc2c1OCCN(c1nc(NCCN(C)C)nc(C)c1C(C)C)C2
40 | ≤ 100 nM | CCc1c(C)nc(N)nc1N1CCOc2c(C)cc(-c3cnc4sc(N)nc4c3)cc2C1
41 | 100 to 500 nM | Cc1cc(-c2cnc3sc(N)nc3c2)cc2c1OCCN(c1ncccc1C#N)C2
42 | ≤ 100 nM | Cc1cc(-c2cnc3sc(N)nc3c2)cc2c1OCCN(c1nc(CNCC(F)(F)F)nc(C)c1C(C)C)C2
43 | ≤ 100 nM | Cc1cc(-c2cnc3sc(N)nc3c2)cc2c1OCCN(c1nc(CN(C)C)nc(C)c1C(C)C)C2
44 | ≤ 100 nM | CCc1cnc(CN(C)C)nc1N1CCOc2c(C)cc(-c3cnc4sc(N)nc4c3)cc2C1
45 | ≤ 100 nM | Cc1cc(-c2cnc3sc(N)nc3c2)cc2c1OCCN(c1nc(C3CC3)nc(C)c1C(C)C)C2
46 | ≤ 100 nM | C=Cc1c(C)nc(N)nc1N1CCOc2c(C)cc(-c3cnc4sc(N)nc4c3)cc2C1

Row | IC50 | SMILES
47 | ≤ 100 nM | Cc1cc(-c2cnc(Cl)c(NS(C)(=O)=O)c2)cc2c1OCCN(c1nc(N)nc(C)c1C(C)C)C2
48 | ≤ 100 nM | CCN(CC)Cc1nc(C)c(C(C)C)c(N2CCOc3c(C)cc(-c4cnc5sc(N)nc5c4)cc3C2)n1
49 | ≤ 100 nM | CCCc1c(C)nc(N)nc1N1CCOc2c(C)cc(-c3cnc4sc(N)nc4c3)cc2C1
50 | ≤ 100 nM | Cc1cc(-c2nnc(N)s2)cc2c1OCCN(c1ncnc(C)c1C)C2
51 | ≤ 100 nM | Cc1cnc(N)nc1N1CCOc2c(C)cc(-c3nnc(N)s3)cc2C1
52 | 100 to 500 nM | Cc1ncc(C)c(N2CCOc3c(C)cc(-c4nnc(N)s4)cc3C2)n1
53 | ≤ 100 nM | Cc1cc(-c2ccc3c(c2)OCO3)cc2c1OCCN(c1nc(N)nc(C)c1C(C)C)C2
54 | ≤ 100 nM | Cc1cc(-c2cnc3sc(N)nc3c2)cc2c1OCCN(c1nc(C(F)F)nc(C)c1C(C)C)C2
55 | ≤ 100 nM | CCNCc1nc(C)c(C(C)C)c(N2CCOc3c(C)cc(-c4cnc5sc(N)nc5c4)cc3C2)n1
56 | ≤ 100 nM | Cc1cc(-c2cnc(Cl)c(NS(=O)(=O)C(F)(F)F)c2)cc2c1OCCN(c1nc(N)nc(C)c1C(C)C)C2
57 | 100 to 500 nM | CNC(=O)c1sc(N2CCOc3c(C)cc(-c4cnc(Cl)c(NS(C)(=O)=O)c4)cc3C2)nc1C(C)C
58 | ≤ 100 nM | Cc1cc(-c2cnc3sc(N)nc3c2)cc2c1OCCN(c1nc(CNC3CC3)nc(C)c1C(C)C)C2
59 | 100 to 500 nM | Cc1cc(-c2cnn(C)c2)cc2c1OCCN(c1nc(N)nc(C)c1C(C)C)C2
60 | ≤ 100 nM | Cc1cc(-c2cnc3sc(N)nc3c2)cc2c1OCCN(c1ncnc(Cl)c1C(C)C)C2
61 | ≤ 100 nM | COc1ccc(-c2cc(C)c3c(c2)CN(c2nc(N)nc(C)c2C(C)C)CCO3)cn1
62 | ≤ 100 nM | COc1ncc(-c2cc(C)c3c(c2)CN(c2nc(N)nc(C)c2C(C)C)CCO3)cn1
63 | ≤ 100 nM | CCc1nc(CN(C)C)nc(N2CCOc3c(C)cc(-c4cnc5sc(N)nc5c4)cc3C2)c1C(C)C
64 | ≤ 100 nM | Cc1cc(-c2cnc3sc(N)nc3c2)cc2c1OCCN(c1nc(C(F)(F)F)nc(C)c1C(C)C)C2
65 | ≤ 100 nM | Cc1cc(-c2cnc3sc(N)nc3c2)cc2c1OCCN(c1nc(CNC(C)(C)C)nc(C)c1C(C)C)C2
66 | ≤ 100 nM | Cc1cc(-c2cnc3sc(N)nc3c2)cc2c1OCCN(c1nc(N)nc(Cl)c1C(C)C)C2
67 | ≤ 100 nM | Cc1cc(-c2cnc3sc(N)nc3c2)cc2c1OCCN(c1nc(CNCCF)nc(C)c1C(C)C)C2
68 | ≤ 100 nM | CCc1nc(N)nc(N2CCOc3c(C)cc(-c4cnc5sc(N)nc5c4)cc3C2)c1C(C)C
69 | ≤ 100 nM | C#CCc1c(C)nc(C)nc1N1CCOc2c(C)cc(-c3cnc4sc(N)nc4c3)cc2C1

Row | IC50 | SMILES
70 | ≤ 100 nM | Cc1cc(-c2cnc3sc(N)nc3c2)cc2c1OCCN(c1nc(CN(C)CCF)nc(C)c1C(C)C)C2
71 | ≤ 100 nM | COCCc1nc(C)c(C(C)C)c(N2CCOc3c(C)cc(-c4cnc5sc(N)nc5c4)cc3C2)n1
72 | ≤ 100 nM | Cc1cc(-c2cnc3sc(N)nc3c2)cc2c1OCCN(c1nc(C(C)O)nc(C)c1C(C)C)C2 (stereo unspecified)
73 | ≤ 100 nM | Cc1cc(-c2cnc(N)s2)cc2c1OCCN(c1nc(N)nc(C)c1C(C)C)C2
74 | ≤ 100 nM | Cc1cc(-c2cnc3sc(N)nc3c2)cc2c1OCCN(c1ncnc(C)c1C(C)C)C2
75 | ≤ 100 nM | COCC(C)c1c(C)nc(C)nc1N1CCOc2c(C)cc(-c3cnc4sc(N)nc4c3)cc2C1 (stereo unspecified)
76 | ≤ 100 nM | Cc1cc(-c2cnc(N)nc2)cc2c1OCCN(c1nc(N)nc(C)c1C(C)C)C2
77 | 100 to 500 nM | Cc1cc(-c2cnc3sc(N)nc3c2)cc2c1OCCN(c1ncc(C(F)(F)F)c(N)n1)C2
78 | ≤ 100 nM | Cc1cc(-c2cnc3sc(N)nc3c2)cc2c1OCCN(c1nc([S+](C)[O-])nc(C)c1C(C)C)C2 (stereo unspecified)
79 | ≤ 100 nM | Cc1cc(-c2cnc3nc[nH]c3c2)cc2c1OCCN(c1nc(CN(C)CC(F)F)nc(C)c1C(C)C)C2
80 | ≤ 100 nM | COCc1c(C)nc(C)nc1N1CCOc2c(C)cc(-c3cnc4sc(N)nc4c3)cc2C1
81 | ≤ 100 nM | CNCc1nc(C)c(C(C)C)c(N2CCOc3c(C)cc(-c4cnc5sc(N)nc5c4)cc3C2)n1
82 | ≤ 100 nM | Cc1cc(-c2cnc3sc(N)nc3c2)cc2c1OCCN(c1nc(C3CCCN3C)nc(C)c1C(C)C)C2 (stereo unspecified)
83 | ≤ 100 nM | CNc1nc(C)c(C(C)C)c(N2CCOc3c(C)cc(-c4cnc5sc(N)nc5c4)cc3C2)n1
84 | ≤ 100 nM | Cc1cc(-c2nnc(N)s2)cc2c1OCCN(c1ncncc1C(C)C)C2
85 | ≤ 100 nM | Cc1cc(-c2cncc(NS(C)(=O)=O)c2)cc2c1OCCN(c1nc(N)nc(C)c1C(C)C)C2
86 | ≤ 100 nM | Cc1nc2cc(-c3cc(C)c4c(c3)CN(c3nc(N)nc(C)c3C(C)C)CCO4)cnc2[nH]1
87 | ≤ 100 nM | COc1nc(C)c(C(C)C)c(N2CCOc3c(C)cc(-c4cnc5sc(N)nc5c4)cc3C2)n1
88 | 100 to 500 nM | CNc1ncnc(N2CCOc3c(C)cc(-c4cnc5sc(N)nc5c4)cc3C2)c1[N+](=O)[O-]
89 | ≤ 100 nM | Cc1cc(-c2nnc(N)s2)cc2c1OCCN(c1nc(CN(C)CC(F)F)nc(C)c1C(C)C)C2
90 | 100 to 500 nM | Cc1cc(-c2ccc(-c3ncc[nH]3)cc2)cc2c1OCCN(c1nc(N)nc(C)c1C(C)C)C2
91 | ≤ 100 nM | Cc1cc(-c2cnc3sc(N)nc3c2)cc2c1OCCN(c1nc(N)nc(C)c1C)C2
